Data reported in the NIST ThermoML archive (doi:10.1021/je0496140).

How the values were obtained:
[1] = xn = mol fraction of the nth substance listed; settings: 101.33 kPa, Liquid
[2] = 101.33 kPa, Liquid

CCCCCl [1-chlorobutane] + CC(C)CO
[1]
Settings	mass density [kg/m3]	viscosity [mPa·s]
288.15 K, x2 = 0.0369	888.52	–
288.15 K, x2 = 0.0769	885.16	–
288.15 K, x2 = 0.1003	–	0.511
288.15 K, x2 = 0.1526	878.94	–
288.15 K, x2 = 0.1993	–	0.568
288.15 K, x2 = 0.2287	872.74	–
288.15 K, x2 = 0.2853	868.15	–
288.15 K, x2 = 0.2979	–	0.654
288.15 K, x2 = 0.3791	860.52	–
288.15 K, x2 = 0.3954	–	0.784
288.15 K, x2 = 0.4421	855.33	–
288.15 K, x2 = 0.496	–	0.948
288.15 K, x2 = 0.5564	845.76	–
288.15 K, x2 = 0.5739	844.3	–
288.15 K, x2 = 0.5936	–	1.198
288.15 K, x2 = 0.625	839.91	–
288.15 K, x2 = 0.6843	834.73	–
288.15 K, x2 = 0.6894	–	1.57
288.15 K, x2 = 0.7309	830.64	–
288.15 K, x2 = 0.7517	828.8	–
288.15 K, x2 = 0.7555	828.45	–
288.15 K, x2 = 0.7567	828.35	–
288.15 K, x2 = 0.7923	–	2.196
288.15 K, x2 = 0.849	819.9	–
288.15 K, x2 = 0.8912	–	3.098
288.15 K, x2 = 0.9196	813.2	–
288.15 K, x2 = 0.9806	807.26	–
298.15 K, x2 = 0.1003	–	0.454
298.15 K, x2 = 0.1993	–	0.499
298.15 K, x2 = 0.2979	–	0.567
298.15 K, x2 = 0.3954	–	0.663
298.15 K, x2 = 0.496	–	0.787
298.15 K, x2 = 0.5936	–	0.97
298.15 K, x2 = 0.6894	–	1.23
298.15 K, x2 = 0.7923	–	1.669
298.15 K, x2 = 0.8912	–	2.284
308.15 K, x2 = 0.1003	–	0.408
308.15 K, x2 = 0.1006	861.12	–
308.15 K, x2 = 0.1959	853.68	–
308.15 K, x2 = 0.1993	–	0.445
308.15 K, x2 = 0.277	847.47	–
308.15 K, x2 = 0.2979	–	0.497
308.15 K, x2 = 0.3894	838.94	–
308.15 K, x2 = 0.3954	–	0.574
308.15 K, x2 = 0.4895	831.33	–
308.15 K, x2 = 0.496	–	0.663
308.15 K, x2 = 0.5863	823.9	–
308.15 K, x2 = 0.5936	–	0.801
308.15 K, x2 = 0.6894	–	0.986
308.15 K, x2 = 0.6914	815.7	–
308.15 K, x2 = 0.7923	–	1.295
308.15 K, x2 = 0.7941	807.44	–
308.15 K, x2 = 0.8912	–	1.724
308.15 K, x2 = 0.8989	798.78	–
318.15 K, x2 = 0.0905	850.62	–
318.15 K, x2 = 0.1003	–	0.369
318.15 K, x2 = 0.1869	843.28	–
318.15 K, x2 = 0.1993	–	0.397
318.15 K, x2 = 0.2712	837.05	–
318.15 K, x2 = 0.2979	–	0.44
318.15 K, x2 = 0.3772	829.29	–
318.15 K, x2 = 0.3954	–	0.498
318.15 K, x2 = 0.4806	821.73	–
318.15 K, x2 = 0.496	–	0.567
318.15 K, x2 = 0.5812	814.29	–
318.15 K, x2 = 0.5936	–	0.682
318.15 K, x2 = 0.6819	806.85	–
318.15 K, x2 = 0.6894	–	0.808
318.15 K, x2 = 0.7816	799.34	–
318.15 K, x2 = 0.7923	–	1.025
318.15 K, x2 = 0.8896	791.03	–
318.15 K, x2 = 0.8912	–	1.33

CC(C)CO [2-methyl-1-propanol]
[2]
Settings	mass density [kg/m3]	viscosity [mPa·s]
288.15 K	805.47	4.805
298.15 K	797.37	3.435
308.15 K	790.1	2.508
318.15 K	781.99	1.87

CCCCCl [1-chlorobutane] + CCC(C)O
[1]
Settings	mass density [kg/m3]	viscosity [mPa·s]
288.15 K, x2 = 0.05	887.1	–
288.15 K, x2 = 0.0965	–	0.496
288.15 K, x2 = 0.1177	881.38	–
288.15 K, x2 = 0.1435	879.24	–
288.15 K, x2 = 0.1962	874.99	–
288.15 K, x2 = 0.1973	–	0.542
288.15 K, x2 = 0.2227	872.88	–
288.15 K, x2 = 0.2962	–	0.601
288.15 K, x2 = 0.34	863.63	–
288.15 K, x2 = 0.3934	–	0.688
288.15 K, x2 = 0.4058	858.45	–
288.15 K, x2 = 0.4104	858.09	–
288.15 K, x2 = 0.4917	–	0.805
288.15 K, x2 = 0.4986	851.12	–
288.15 K, x2 = 0.5241	849.12	–
288.15 K, x2 = 0.5527	846.87	–
288.15 K, x2 = 0.5923	–	0.995
288.15 K, x2 = 0.6114	842.23	–
288.15 K, x2 = 0.6634	838.14	–
288.15 K, x2 = 0.6919	–	1.286
288.15 K, x2 = 0.7388	832.24	–
288.15 K, x2 = 0.7931	–	1.764
288.15 K, x2 = 0.7984	827.45	–
288.15 K, x2 = 0.8286	824.99	–
288.15 K, x2 = 0.884	820.5	–
288.15 K, x2 = 0.8933	–	2.648
288.15 K, x2 = 0.9367	816.07	–
298.15 K, x2 = 0.0965	–	0.444
298.15 K, x2 = 0.1973	–	0.478
298.15 K, x2 = 0.2962	–	0.524
298.15 K, x2 = 0.3934	–	0.587
298.15 K, x2 = 0.4917	–	0.675
298.15 K, x2 = 0.5923	–	0.811
298.15 K, x2 = 0.6919	–	1.011
298.15 K, x2 = 0.7931	–	1.334
298.15 K, x2 = 0.8933	–	1.901
308.15 K, x2 = 0.0965	–	0.399
308.15 K, x2 = 0.1007	860.49	–
308.15 K, x2 = 0.1941	853.08	–
308.15 K, x2 = 0.1973	–	0.426
308.15 K, x2 = 0.2775	846.72	–
308.15 K, x2 = 0.2962	–	0.462
308.15 K, x2 = 0.3881	838.47	–
308.15 K, x2 = 0.3934	–	0.51
308.15 K, x2 = 0.4876	831.15	–
308.15 K, x2 = 0.4917	–	0.577
308.15 K, x2 = 0.5897	823.73	–
308.15 K, x2 = 0.5923	–	0.676
308.15 K, x2 = 0.6919	–	0.818
308.15 K, x2 = 0.6927	816.37	–
308.15 K, x2 = 0.7931	–	1.034
308.15 K, x2 = 0.795	808.99	–
308.15 K, x2 = 0.8933	–	1.419
308.15 K, x2 = 0.8963	801.67	–
318.15 K, x2 = 0.0864	850.35	–
318.15 K, x2 = 0.0965	–	0.362
318.15 K, x2 = 0.1906	842.1	–
318.15 K, x2 = 0.1973	–	0.382
318.15 K, x2 = 0.2732	835.88	–
318.15 K, x2 = 0.2962	–	0.41
318.15 K, x2 = 0.382	828	–
318.15 K, x2 = 0.3934	–	0.45
318.15 K, x2 = 0.4862	820.61	–
318.15 K, x2 = 0.4917	–	0.498
318.15 K, x2 = 0.5852	813.65	–
318.15 K, x2 = 0.5923	–	0.571
318.15 K, x2 = 0.6823	806.95	–
318.15 K, x2 = 0.6919	–	0.676
318.15 K, x2 = 0.7865	799.78	–
318.15 K, x2 = 0.7931	–	0.825
318.15 K, x2 = 0.8928	792.59	–
318.15 K, x2 = 0.8933	–	1.072
